Test results from patent US20200010489A1, “ZWITTERIONIC SILATRANE-BASED MATERIAL AND ANTIFOULING SUBSTRATE CONTAINING SAME” (National Central University, priority 2018, published 2020).

Test: Chemical stability test of dry solid powders (FTIR, photographs)
Assay type: physicochemical
Conditions: RH=79%
Procedure: The dry solid powders of SBSi and SBSiT obtained above are placed in a laboratory environment (RH=79%, temperature=24° C.) for 24 hours, and the chemical stabilities of SBSi and SBSiT are examined by Fourier transform infrared spectroscopy (FTIR). Referring to FIG. 1A, signals is centered at 1050 and 1612 cm^−1 corresponding to Vas(SO3^−) and Vb(N(CH3)^+), respectively, so as to ensure that all samples have a sulfobetaine moiety.

- FTIR spectra / absorption intensity after storage for 24 hours compared with before storage (dry solid powder, temperature=24° C.): significantly lower
- appearance of solid after storage for 24 hours (hygroscopic properties) (moisture environment, 24° C.): clearly deliquescent
SMILES: CO[Si](CCC[N+](C)(C)CCCS(=O)(=O)[O-])(OC)OC [SBSi, sulfobetaine silane, reference compound]
